According to PMC3914206:

Key:
Type in all cases: binding
[1] = molecular target: T1, panel of 442 kinases (Homo sapiens, UniProt P42680); details: kinase TEC; compound concentration 10 µM
T1 construct: purchased KINOMEscan
T1 sequence (P42680 1-631): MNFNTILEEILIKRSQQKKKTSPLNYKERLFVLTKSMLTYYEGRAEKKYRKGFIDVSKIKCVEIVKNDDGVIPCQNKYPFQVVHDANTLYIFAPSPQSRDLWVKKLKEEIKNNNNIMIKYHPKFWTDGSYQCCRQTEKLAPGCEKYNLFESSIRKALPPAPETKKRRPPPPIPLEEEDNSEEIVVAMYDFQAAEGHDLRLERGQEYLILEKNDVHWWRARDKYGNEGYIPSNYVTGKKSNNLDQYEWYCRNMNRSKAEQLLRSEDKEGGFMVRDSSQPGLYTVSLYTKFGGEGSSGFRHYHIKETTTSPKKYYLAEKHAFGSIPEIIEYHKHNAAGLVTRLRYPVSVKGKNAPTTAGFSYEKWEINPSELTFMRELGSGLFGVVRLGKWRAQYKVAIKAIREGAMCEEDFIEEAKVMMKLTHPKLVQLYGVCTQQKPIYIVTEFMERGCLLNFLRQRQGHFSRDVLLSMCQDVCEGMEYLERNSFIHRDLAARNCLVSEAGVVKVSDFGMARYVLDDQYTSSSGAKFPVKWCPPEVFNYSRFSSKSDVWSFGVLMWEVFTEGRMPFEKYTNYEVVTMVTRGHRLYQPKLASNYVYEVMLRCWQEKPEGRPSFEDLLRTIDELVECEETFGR
From the text: (§1) We assessed the selectivity of members of this scaffold using the KINOMEscan methodology across a near comprehensive panel of 442 kinases [[18,27]].

[2] = molecular target: T2, panel of 442 kinases (Homo sapiens, UniProt P00533, L861Q); details: Compound Concentration 10 µM
T2 construct: purchased KINOMEscan
From the text: as §1

[3] = molecular target: T3, panel of 442 kinases (Homo sapiens, UniProt P52564); details: Compound Concentration 10 µM
T3 construct: purchased KINOMEscan
T3 sequence (P52564 1-334): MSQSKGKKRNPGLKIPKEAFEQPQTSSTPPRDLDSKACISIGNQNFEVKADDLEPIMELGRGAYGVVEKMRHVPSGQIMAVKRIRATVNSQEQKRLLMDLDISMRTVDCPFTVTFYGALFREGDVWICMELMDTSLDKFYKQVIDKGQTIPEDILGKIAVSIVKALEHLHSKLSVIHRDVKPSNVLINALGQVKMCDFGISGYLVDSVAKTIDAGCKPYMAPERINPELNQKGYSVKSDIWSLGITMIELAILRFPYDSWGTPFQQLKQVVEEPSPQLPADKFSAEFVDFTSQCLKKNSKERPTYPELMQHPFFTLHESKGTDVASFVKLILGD
From the text: as §1

T2 sequence (P00533 25-1210 L861Q): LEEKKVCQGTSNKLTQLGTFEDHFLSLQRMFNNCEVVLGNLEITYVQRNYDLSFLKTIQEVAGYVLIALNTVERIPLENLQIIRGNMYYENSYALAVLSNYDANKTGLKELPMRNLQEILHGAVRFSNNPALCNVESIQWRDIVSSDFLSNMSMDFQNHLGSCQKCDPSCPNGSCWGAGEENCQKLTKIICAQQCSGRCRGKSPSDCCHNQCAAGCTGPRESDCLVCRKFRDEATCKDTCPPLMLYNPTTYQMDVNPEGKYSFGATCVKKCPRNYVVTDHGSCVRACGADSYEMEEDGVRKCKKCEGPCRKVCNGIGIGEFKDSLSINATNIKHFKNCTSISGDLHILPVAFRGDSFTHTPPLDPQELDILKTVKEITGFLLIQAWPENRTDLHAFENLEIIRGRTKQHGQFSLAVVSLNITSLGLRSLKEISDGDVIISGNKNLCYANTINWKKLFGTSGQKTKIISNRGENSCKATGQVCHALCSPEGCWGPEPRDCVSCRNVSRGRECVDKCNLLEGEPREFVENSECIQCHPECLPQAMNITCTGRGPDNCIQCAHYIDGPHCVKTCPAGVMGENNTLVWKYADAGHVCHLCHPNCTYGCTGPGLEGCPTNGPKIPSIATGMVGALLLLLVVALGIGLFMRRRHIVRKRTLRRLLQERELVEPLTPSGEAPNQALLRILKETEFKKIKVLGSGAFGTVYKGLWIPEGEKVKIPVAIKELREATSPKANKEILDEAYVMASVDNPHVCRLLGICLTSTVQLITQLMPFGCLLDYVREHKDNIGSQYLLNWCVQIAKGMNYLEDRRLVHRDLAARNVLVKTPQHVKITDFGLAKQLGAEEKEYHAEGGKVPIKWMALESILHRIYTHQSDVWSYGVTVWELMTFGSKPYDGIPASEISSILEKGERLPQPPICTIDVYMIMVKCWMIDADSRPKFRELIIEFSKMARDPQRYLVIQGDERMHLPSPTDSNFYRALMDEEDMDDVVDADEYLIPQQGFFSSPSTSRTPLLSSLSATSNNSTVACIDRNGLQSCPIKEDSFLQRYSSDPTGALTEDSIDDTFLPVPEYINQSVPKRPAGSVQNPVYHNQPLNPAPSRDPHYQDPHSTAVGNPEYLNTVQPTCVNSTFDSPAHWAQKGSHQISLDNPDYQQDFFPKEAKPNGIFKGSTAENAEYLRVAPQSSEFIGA

SMILES: COc1cc(C(=O)N2CCC(N3CCN(C)CC3)CC2)ccc1Nc1ncc2c(n1)N1CCc3cccc(c31)C(=O)N2C [Compound 24]
- % Ctrl, TEC [1]: 100 % Ctrl
- KINOMEscan: EGFR(L861Q) [2]: 82
- KINOMEscan: MEK6 [3]: 66

SMILES: CCOc1cc(C(=O)N2CCC(N3CCN(C)CC3)CC2)ccc1Nc1ncc2c(n1)N(C1CCCC1)c1ccccc1C(=O)N2C [Compound 26]
- % Ctrl, TEC [1]: 100 % Ctrl
- KINOMEscan: EGFR(L861Q) [2]: 100
- KINOMEscan: MEK6 [3]: 84

SMILES: COc1cc(C(=O)N2CCC(N3CCN(C)CC3)CC2)ccc1Nc1ncc2c(n1)N(C1CCCC1)c1ccccc1C(=O)N2C [Compound 25, 11-cyclopentyl-2-((2-methoxy-4-(4-(4-methylpiperazin-1-yl)piperidine-1-carbonyl)phenyl)amino)-5-methyl-5H-benzo[e]pyrimido[5,4-b][1,4]diazepin-6(11H)-one]
- % Ctrl, TEC [1]: 91 % Ctrl
- KINOMEscan: EGFR(L861Q) [2]: 89
- KINOMEscan: MEK6 [3]: 61

SMILES: COc1cc(C(=O)N2CCC(N3CCN(C)CC3)CC2)ccc1Nc1ncc2c(n1)N(C)c1ccccc1C(=O)N2C [15 (LRRK2-IN-1)]
- % Ctrl, TEC [1]: 100 % Ctrl
- KINOMEscan: EGFR(L861Q) [2]: 100
- KINOMEscan: MEK6 [3]: 83
